Results on one substance are retold here after patent US10041935B2, “Identification of olfactory receptors sensitive to different odorants” (New York University, priority 2013, dated 2018).

Data set [1] can be described thus: Kinetics of fluorescence decay upon calcium release, rapid mixing with EGTA in stopped-flow device. In kind it is binding. The protocol:
(§1) Other CaMPARI variants were constructed and there include V398L, W391F+V398L, W391F, W391L, V398T, G395D, W391Y, W391Y+V398T, V398D, W391F+G395D, W391F+V398H. The variants were made based on substitutions within the M13 domain of CaMPARI that alter the affinity, cooperativity and kinetics and calcium binding. The magnitude of fluorescence change was similar for all variants. Dissociation constants for calcium (Kd) and Hill coefficients were determined from a sigmoidal fit to calcium titration data. Kinetics of fluorescence decay upon calcium release were determined by rapid mixing with EGTA in a stopped-flow device.

The nature of data set [2]: Calcium titration of purified CaMPARI protein, fluorescence in plate reader. The data set is classed as binding. The protocol:
(§2) This Example describes procedures performed to characterize the in vitro properties of the fluorescent proteins. First, CaMPARI protein was expressed from the pRSET plasmid (Life Technologies, Carlsbad, Calif.) in T7 Express E. coli cells cultured for 36 h in 100 mL of autoinduction medium supplemented with 100 mg/L ampicillin. Cell pellets were lysed using B-PER (Pierce, Rockford, Ill.) supplemented with 1 mg/mL lysozyme and 1 min. of sonication. After removing insoluble material by centrifugation, CaMPARI protein was purified by immobilized metal affinity chromatograpy on nickel-charged Profinity resin (Bio-Rad, Hercules, Calif.), washing with 10 mM imidazole and eluting with 100 mM imidazole.
(§3) Using these samples, calcium titrations were used to calculate an apparent affinity of the protein for calcium ions. Aliquots of purified CaMPARI protein were mixed with Ca-EGTA solutions calculated to contain a range of free Ca^2+ ions (Life Technologies) and fluorescence was measured in a plate reader. Furthermore, to observe the photoconversion rate difference+/−calcium, purified CaMPARI in 5 mM CaCl2 or 5 mM EGTA were photoconverted using a 400 nm LED array and green and red fluorescence was measured at various time points to fit an exponential rate to the appearance of red fluorescence or the disappearance of green fluorescence.

Data set [3] can be described thus: Fluorescence of purified CaMPARI green and red forms +/- calcium. The note with it: purified protein. The protocol:
as §2, §3

A short description of data set [4]: Calcium titration of CaMPARI M13-domain variants, sigmoidal fit. In kind it is binding. The note with it: dissociation constant for calcium, sigmoidal fit to calcium titration data. On the procedure: as §1
Data set [5] has as its system cultured rat hippocampal neurons. As to the kind of experiment: Photoconversion with field electrode stimulation in neurons expressing CaMPARI. The data set is classed as cell-based. The note with it: 83 Hz action potentials at the beginning of a 2 s photoconversion pulse. The protocol:
First, cultured rat hippocampal neurons were prepared and infected with lentivirus expressing CaMPARI from the human synapsin promoter. The neurons were imaged ten days after infection with a 10× objective before and after various combinations of photoconversion and field electrode-induced action potential firing. Prior to imaging, the neuron cultures were washed with imaging buffer and spontaneous activity was blocked with a drug mix.
Following a 2 s pulse of photoconversion light (1.5 W/cm^2) to CaMPARI-expressing neurons, there was no significant decrease in green fluorescence and a small amount of red fluorescence was visible (FIG. 13A). […] Repeated exposures of CaMPARI-expressing neurons to shorter photoconversion light pulses (0.5 s) led to increasing amounts of red fluorescence signal (FIG. 16A) and red/green ratio (two left bars in FIG. 16B), but the ratio of red-to-green photoconversion between 80 Hz field stimulated and unstimulated neurons remained approximately constant (right-most bars in FIG. 16B). Field electrode stimulation of CaMPARI-expressing neurons (without application of photoconversion light) led to transient decreases in the green fluorescence signal, proportional to the number of induced action potentials (FIG. 17).

Data set [6] can be described thus: Photoconversion rate difference +/- calcium of purified CaMPARI (400 nm LED array). The note with it: purified protein, 5 mM CaCl2 vs 5 mM EGTA. The protocol: as §2, §3

Regarding “CaMPARI v1: isolated polypeptide comprising CaM, EosFP, and M13, SEQ ID NO: 1; Calcium-Modulated Photoactivatable Ratiometric Integrator”, the koff in data set [1] was 0.25 s⁻¹. In addition, the Kd in data set [2] (purified protein, without N-terminal NES, estimated from fluorescence change with increasing calcium, read-out: dissociation constant (Kd)) was 130 nM; in data set [2] (with nuclear export signal (NES) added to the N-terminus, read-out: Kd) it was 106 nM; in data set [4] it was 111 nM. The “green form less fluorescent in the presence of calcium” value in data set [3] (green form) was 8 fold. Besides, the “red form less fluorescent in the presence of calcium” value in data set [3] (red form) is recorded as 34 fold. Also, the “more green-to-red photoconversion for 160 action potentials relative to 0” value in data set [5] is recorded as “up to 12 fold”. Also, in data set [6], the “faster green-to-red photoconversion rate in the presence of calcium” value was 29 fold.

A word on the koff: it is the first-order rate constant of dissociation. Broadly, the Kd is the equilibrium constant for the complex coming apart.
